Earlier results as cited in patent publication US20170262578A1, “SYSTEM, METHOD AND SOFTWARE FOR ANALYSIS OF INTRACELLULAR SIGNALING PATHWAY ACTIVATION USING TRANSCRIPTOMIC DATA” (PATHWAY PHARMACEUTICALS LTD, priority 2015, published 2017).
Where two headings read alike, the source gives them in different places.

Key:
Renal Cell Carcinoma [1] = conditions: 28 from 51 participants
[2] = system: Locally Advanced and/or Metastatic Renal Cell Carcinoma; conditions: 230 from 554 Pazopanib / 224 from 548 Sunitinib participants
[3] = system: Cytokine-Refractory Metastatic Renal Cell Carcinoma; conditions: 46 from 106 participants
[4] = system: Cytokine-Refractory Metastatic Renal Cell Carcinoma
[5] = system: Advanced (First-Line) Renal Cell Cancer; conditions: 45 of 119 participants
[6] = system: Metastatic Renal Cell Cancer
[7] = system: Locally Advanced and/or Metastatic Renal Cell Carcinoma; conditions: 68 from 186 Pazopanib / 73 from 177 Sunitinib participants
[8] = system: Metastatic Renal Cell Cancer; conditions: for Serious adverse events: 108 from 359 Axitinib / 110 from 355 Sorafenib participants
[9] = system: Unresectable and/or Metastatic Renal Cell Carcinoma
Renal Cell Carcinoma [10] = system: Renal Cell Carcinoma
[11] = system: Unresectable and/or Metastatic Renal Cell Cancer
[12] = system: Metastatic Renal Cell Carcinoma (RCC)
[13] = system: Unresectable and/or Metastatic Renal Cell Carcinoma; remark: listed apart in the source
[14] = system: Advanced Renal Cell Carcinoma; conditions: for Median overall response duration: 11 / 19 / 20 participants; for Median progression free survival / Median time to treatment failure: 207 / 209 / 210 participants; for Median overall survival: 207 Interferon-α / 209 Temsirolimus / 210 combination participants; for Clinical benefit (complete, partial response or stable disease) / Complete or partial response: from 207 / 209 / 210 participants
[15] = system: Metastatic Carcinoma of the Kidney Which Has Progressed on VEGF Receptor Tyrosine Kinase Inhibitor; conditions: with Best Supportive Care
[16] = system: Metastatic or Unresectable Renal Cell Cancer (RCC)
[17] = system: Locally Advanced and/or Metastatic Renal Cell Carcinoma; conditions: 76 from 290 participants
[18] = system: Locally Recurrent or Metastatic Clear-Cell Renal Cell Carcinoma; conditions: 74 from 225 participants
[19] = system: unresectable or metastatic renal cell carcinoma
[20] = first intervention period, 5 / 8 participants
[21] = first intervention period, from 97 / 92 participants

CCN(CC)CCNC(=O)c1c(C)[nH]c(/C=C2\C(=O)Nc3ccc(F)cc32)c1C [Sunitinib]
Serious adverse events (Renal Cell Carcinoma [1]): 54.90% | Serious adverse events [2]: 40.88% | Serious adverse events [3]: 43.40% | Serious adverse events ([4]; AM dose group, out of 54 participants): 21 participants | Serious adverse events ([4]; PM dose group, from 53 participants): 20 participants | Serious adverse events [5]: 37.82% | Serious adverse events ([6]; Sunitinib 37.5 mg group, 54 from 143 participants): 37.76% | Serious adverse events ([6]; Sunitinib 50 mg group, 50 from 146 participants): 34.25% | Serious adverse events [7]: 41.24%

CNC(=O)c1ccccc1Sc1ccc2c(/C=C/c3ccccn3)n[nH]c2c1 [Axitinib]
Serious adverse events [8]: 30.08%

CNC(=O)c1cc(Oc2ccc(NC(=O)Nc3ccc(Cl)c(C(F)(F)F)c3)cc2)ccn1 [Sorafenib]
Median overall response duration ([9]; 5 participants): 7.4 months | Median time to objective response ([9]; 5 participants): 1.4 months | Serious adverse events ([9]; 12 from 39 participants): 30.77% | Median overall survival ([9]; 39 participants): 7.8 months | Median progression free survival ([9]; 39 participants): 5.5 months | Median time to progression ([9]; 39 participants): 5.5 months | partial response ([9]; from 39 participants): 5 participants | progressive disease ([9]; from 39 participants): 6 participants | stable disease ([9]; from 39 participants): 27 participants | Serious adverse events [8]: 30.99% | Median progression free survival ([8]; 361 Axitinib / 362 Sorafenib participants): 4.7 months | Serious adverse events (Renal Cell Carcinoma [10]; 34 of 95 participants): 35.79% | Median duration of overall response (Renal Cell Carcinoma [10]; 94 participants): 419 days | Median progression free survival (Renal Cell Carcinoma [10]; 94 participants): 386 days | Median time to response (Renal Cell Carcinoma [10]; 94 participants): 84 days | partial response (Renal Cell Carcinoma [10]; among 94 participants): 25 participants | stable disease (Renal Cell Carcinoma [10]; among 94 participants): 64 participants | Number of participants who died (Renal Cell Carcinoma [10]; from start of treatment of the first subject until 45 months later, from 94 participants): 43 participants | Serious adverse events ([11]; 154 from 451 participants): 34.15% | Median progression free survival ([11]; 384 participants): 167 days | Median overall survival ([11]; 451 participants): 542 days | partial response ([11]; from 335 participants): 2.1% | stable disease ([11]; from 335 participants): 77.9% | Serious adverse events ([12]; 4 from 47 participants): 8.51% | Duration of overall response (tumor burden reduction) ([12]; 14 participants): 7.1 months | Median overall survival ([12]; 47 participants): 16 months | Median time to progression ([12]; 47 participants): 4.4 months | Reduction in tumor burden equal to or larger than 5% ([12]; at 8 weeks (2 cycles of treatment), % from 47 participants): 30% | Median duration of response according to the Independent Radiological Review [13, 20]: 7.5 months | Median time to response according to the Independent Radiological Review [13, 20]: 1.8 months | Serious adverse events ([13]; first intervention period, 47 from 97 / 36 from 90 participants): 48.45% | partial response (Independent Central Review) [13, 21]: 5 participants | stable disease (Independent Central Review) [13, 21]: 72 participants | Median progression-free survival according to the Investigator Assessment ([13]; second intervention period): 4.5 months | Serious adverse events ([13]; second intervention period, 14 from 49 / 30 from 61 participants): 28.57% | stable disease (Investigator Assessment) ([13]; second intervention period, from 49 / 61 participants): 25 participants

CO[C@H]1C[C@@H]2CC[C@@H](C)[C@@](O)(O2)C(=O)C(=O)N2CCCC[C@H]2C(=O)O[C@H]([C@H](C)C[C@@H]2CC[C@@H](OC(=O)C(C)(CO)CO)[C@H](OC)C2)CC(=O)[C@H](C)/C=C(\C)[C@@H](O)[C@@H](OC)C(=O)[C@H](C)C[C@H](C)/C=C/C=C/C=C/1C [Temsirolimus]
Median overall response duration [14]: 11.1 months | Serious adverse events ([14]; 99 from 200 / 82 from 208 / 122 from 208 participants): 39.42% | Median progression free survival [14]: 5.6 months | Median time to treatment failure [14]: 3.7 months | Median overall survival [14]: 10.9 months | Clinical benefit (complete, partial response or stable disease) [14]: 34% | Complete or partial response [14]: 9.1%

CO[C@H]1C[C@@H]2CC[C@@H](C)[C@@](O)(O2)C(=O)C(=O)N2CCCC[C@H]2C(=O)O[C@H]([C@H](C)C[C@@H]2CC[C@@H](OCCO)[C@H](OC)C2)CC(=O)[C@H](C)/C=C(\C)[C@@H](O)[C@@H](OC)C(=O)[C@H](C)C[C@H](C)/C=C/C=C/C=C/1C [RAD001, Everolimus]
Serious adverse events ([15]; 135 from 274 participants): 49.27% | Median overall survival ([15]; 277 participants): 13.57 months | Median progression free survival ([15]; 277 participants): 4.9 months | Complete or partial response ([15]; from 277 participants): 1.8%

CNC(=O)c1cc(Oc2ccc(NC(=O)Nc3ccc(Cl)c(C(F)(F)F)c3)c(F)c2)ccn1 [Regorafenib]
Median overall response duration ([16]; 19 participants): 428 days | Median duration of stable disease ([16]; 25 participants): 119 days | Serious adverse events ([16]; 30 from 49 participants): 61.22% | Median progression free survival ([16]; 49 participants): 335 days | partial response ([16]; among 48 participants): 39.6% | stable disease ([16]; among 48 participants): 41.7%

Cc1ccc(Nc2nccc(N(C)c3ccc4c(C)n(C)nc4c3)n2)cc1S(N)(=O)=O [Pazopanib]
Serious adverse events [2]: 41.52% | Serious adverse events [17]: 26.21% | Serious adverse events [7]: 36.56% | Serious adverse events [18]: 32.89%

Interferon-α
Median overall response duration [14]: 7.4 months | Median progression free survival [14]: 3.2 months | Median time to treatment failure [14]: 1.9 months | Median overall survival [14]: 7.3 months | Clinical benefit (complete, partial response or stable disease) [14]: 16.4% | Complete or partial response [14]: 5.3% | Serious adverse events ([14]; in vivo): 49.5%

CN1CC[C@H](c2c(O)cc(O)c3c(=O)cc(-c4ccccc4Cl)oc23)[C@H](O)C1 [Flavopiridol]
stable disease ([19]; 14 among 34 participants): 41% | CR+PR ([19]; 34 participants): 12% | Median overall survival ([19]; 34 participants): 9 months | probability of not failing treatment by 6 months ([19]; 34 participants): 21% | complete response ([19]; among 34 participants): 1 participants | partial response ([19]; among 34 participants): 3 participants | Toxicity of treatment ([19]; in vivo): moderate
